Laboratory results taken from patent US20100016421A1, “METHODS FOR DETERMINING SENSITIVITY TO AMINOFLAVONES” (priority 2008, published 2010).
Where two headings read alike, the source gives them in different places.

How the values were obtained:
[1] = in mice; cited from earlier work
[2] = system: MDA-MB-231; test: MTT assay, MDA-MB-231 breast cancer cell line; type: cell-based, human; details: for IC50: Homo sapiens
Protocol: (§1) The breast cancer cell lines shown in Table 2 were screened to determine the localization of the aryl hydrocarbon receptor (AhR) in accordance with the techniques discussed above. MTT assays were conducted to measure cell death on various breast cancer cell lines.
(§2) The inhibitory concentration 50% were determined by MTT assay and following the NCI DTP in vitro testing procedures (http://dtp.nci.nih.gov/branches/btb/ivclsp.html). Three independent MTT in vitro tumor cell growth inhibition experiments were conducted and a mean IC50 value generated as shown in Table 4.

[3] = system: human tumor xenograft MDA-MB-231; test: MDA-MB-231 subcutaneous xenograft in nude mice
[4] = system: Hs578t; test: MTT assay, Hs578t breast cancer cell line; type: cell-based, human
Protocol: as §2

[5] = system: ERα in MDA-MB-231; test: Western blot of ERα induction, MDA-MB-231; type: cell-based, human; details: MDA-MB-231, 60 hours at […] and 13.5 μM
Protocol: Lane 1 of each of FIGS. 4A and 4B is a control in which the respective cells were treated with DMSO.

[6] = system: BT 20; test: MTT assay, BT 20 breast cancer cell line; type: cell-based; details: Homo sapiens; BT 20, mean of three independent MTT experiments; read-out: AF IC50
Protocol: as §2

[7] = system: HCC1937, BT 20, MDA-MB-468, and SKBR3 ER-negative tumor cells; test: MTT assay, sensitive ER-negative cell lines (summary); type: cell-based; details: Homo sapiens; range over sensitive ER-negative cell lines; read-out: AF IC50 concentrations
Protocol: as §2
(§3) The SKBR3, T47D, MCF-7, MCF-7 Tam1, and MCF-7 Her2-18 cell lines are all of a luminal type gene cluster. […] Based on previous NCI cell line screen results discussed above, ER-negative tumors were thought to be resistant to aminoflavone. […] Thus, the gene profile relating to ER status alone may not predict the sensitivity of the tumor to treatment with AF. AFP464 is not only effective in ER-positive breast cancer cells, which are always of luminal type histologies, but are also effective in the basal A subtype of ER-negative breast cancers.

[8] = system: ER-negative, or “triple-negative,” or basal B breast cancer cell lines; test: Sensitivity to aminoflavone after HDAC inhibitor pre-treatment; type: cell-based; details: Homo sapiens
[9] = system: HCC1937; test: MTT assay, HCC1937 breast cancer cell line; type: cell-based; details: Homo sapiens
Description: (§4) AhR localization correlates with cytotoxic activity of AFP464, as discussed above. […] The growth curves for all three cell lines resulting from 5 day continuous exposure of the cells to AFP464 in 96-well plates and the detection of cell growth by conversion of methyltetrazolium into formazan by viable cells (MTT assay) are shown. All cell lines in FIG. 3 have defects in the BRCA tumor suppressor genes responsible for very aggressive forms of hereditary breast and ovarian cancer. MX-1 have BRCA1 deletions and BRCA2 mutations, HCC1937 are BRCA1 mutant and completely defective, IGROV1 are defective for BRCA2 (±).
as §2

[10] = system: MCF-7; test: MTT assay, MCF-7 breast cancer cell line; type: cell-based, human; details: for IC50: Homo sapiens, MCF7
Protocol: as §1, §2

[11] = system: T47D; test: MTT assay, T47D breast cancer cell line; type: cell-based, human; details: for IC50: Homo sapiens
Protocol: as §1, §2

[12] = system: SKBR3; test: MTT assay, SKBR3 breast cancer cell line; type: cell-based; details: Homo sapiens, SK-BR-3; SKBR3, mean of three independent MTT experiments; read-out: AF IC50
Protocol: as §2

[13] = system: MCF-7 HER2-18; test: MTT assay, MCF-7 HER2-18 cell line; type: cell-based, human; details: for IC50: Homo sapiens
Protocol: as §1, §2

[14] = system: MCF-7 TAM1; test: MTT assay, MCF-7 TAM1 cell line; type: cell-based, human; details: for IC50: Homo sapiens, MCF7:TAM1
Protocol: as §1, §2

[15] = system: SKBR3, T47D, MCF-7, MCF-7 Tam1, and MCF-7 Her2-18 cell lines; test: MTT assay, luminal type cell lines (summary); type: cell-based; details: Homo sapiens; range over luminal type cell lines; read-out: AF IC50 concentrations
Protocol: as §2, §3

[16] = system: MCF10A; test: MTT assay, MCF10A normal breast cell line; type: cell-based, human; details: for IC50: Homo sapiens, MCF-10A
Protocol: as §1, §2

[17] = system: MDA-MB-468; test: MTT assay, MDA-MB-468 breast cancer cell line; type: cell-based; details: Homo sapiens; MDA-MB-468, mean of three independent MTT experiments; read-out: AF IC50
Protocol: as §2

[18] = system: ER-positive cell lines; details: NCI 60 screen, read-out: sensitivity (order of magnitude); cited from earlier work
[19] = system: γ-H2AX foci in MCF-7; test: Immunofluorescence of phosphorylated γ-H2AX, MCF-7; type: cell-based, human
Description: (§5) The phosphorylated γ-H2AX is an indicator of a DNA-damage response in cells.

[20] = system: ADDP; test: Cytotoxicity, ADDP ovarian cancer cell line; type: cell-based; details: Homo sapiens
Description: (§6) Similarly, the ovarian cancer cell lines shown in Table 3 were screened to determine the localization of the Aryl hydrocarbon receptor (AhR). As shown below, and further illustrated in FIGS. 2 and 3, all cell lines where the AhR is localized predominantly in the cytoplasm (e.g. OVCAR-3 and IGROV-1) were more sensitive to treatment with AFP464 than tumor cells where the AhR is localized predominantly in the nucleus (e.g., OVCAR-8).

[21] = system: γ-H2AX foci in MDA-MB-231; test: Immunofluorescence of phosphorylated γ-H2AX, MDA-MB-231; type: cell-based, human
Description: as §5

[22] = system: γ-H2AX foci in MCF-7 HER2-18; test: Immunofluorescence of phosphorylated γ-H2AX, MCF-7 HER2-18; type: cell-based, human
Description: as §5

[23] = system: CYP1A1; test: Real time PCR of CYP1A1 expression, MDA-MB-231
[24] = system: γ-H2AX foci in MCF-7 TAM1; test: Immunofluorescence of phosphorylated γ-H2AX, MCF-7 TAM1; type: cell-based, human
Description: as §5

[25] = Maximum tolerated dose; details: mouse, in vivo, iv; intravenously
Protocol: Next, the treatment and data evaluation will be discussed. […] The maximum tolerated dose (MTD) for AFP464 was determined prior to initiation of the experiment as 75 mg/kg/d intravenously. […]. […] AFP464 was given on days 1, 3, 5, 15, 17, and 19.

[26] = system: OVCAR-3; test: Cytotoxicity, OVCAR-3 ovarian cancer cell line; type: cell-based; details: Homo sapiens
Description: as §6

[27] = system: γ-H2AX foci in MCF10a; test: Immunofluorescence of phosphorylated γ-H2AX, MCF10a; type: cell-based, human
Description: as §5

[28] = system: γ-H2AX foci in T47D; test: Immunofluorescence of phosphorylated γ-H2AX, T47D; type: cell-based, human
Description: as §5

[29] = system: IGROV-1; test: Cytotoxicity (MTT), IGROV-1 ovarian cancer cell line; type: cell-based; details: Homo sapiens
Description: as §6, §4

[30] = system: CYP1B1; test: Real time PCR of CYP1B1 expression, MDA-MB-231
[31] = system: AG6000; test: Cytotoxicity, AG6000 ovarian cancer cell line; type: cell-based; details: Homo sapiens
Description: as §6

[32] = system: OVCAR-8; test: Cytotoxicity, OVCAR-8 ovarian cancer cell line; type: cell-based; details: Homo sapiens
Description: as §6

[33] = system: MX-1; test: MTT assay, MX-1 triple negative breast cancer cell line; type: cell-based; details: Homo sapiens, MX1, 120 h, MX-1, 5 day continuous exposure
Description: as §4

[34] = system: A2780; test: Cytotoxicity, A2780 ovarian cancer cell line; type: cell-based; details: Homo sapiens
Description: as §6

[35] = mean of three independent MTT experiments, read-out: AF IC50
[36] = MDA-MB-231, SAHA for 48 hours followed by AFP464 for 6 hours
[37] = MDA-MB-231, SAHA for 48 hours followed by AFP464 for 24 hours

O=C(CCCCCCC(=O)Nc1ccccc1)NO [SAHA, suberoylanilide hydroxamic acid, reference compound]
MTD [1]: 175 mg/kg/day
IC100 ([2]; SAHA in MDA-MB-231): 13.5 µM
Opt. Test/Control % [d] ([3]; Vorinostat 50 mg/kg p.o. Day −3 to −1, 12-14, optimum d26): 71 [d26] %
IC100 ([4]; SAHA in Hs578T): 100 µM
ERα induction [5]: increases

Cc1c(F)c(N)c2c(=O)cc(-c3ccc(N)c(F)c3)oc2c1F [AF, aminoflavone]
IC50 [6]: 20 nM
IC50 [7]: 10 to 20 nM
IC50 [8]: ~1000 nM
IC50 ([9]; HCC1937, mean of three independent MTT experiments, read-out: AF IC50): 10 nM
IC50 ([10]; MCF-7, mean of three independent MTT experiments, read-out: AF IC50): 16 nM
IC50 ([2]; MDA-MB-231, mean of three independent MTT experiments, read-out: AF IC50): 25000 nM
IC50 [11, 35]: 14 nM
IC50 [12]: 16 nM
IC50 ([13]; MCF-7 Her2-18, mean of three independent MTT experiments, read-out: AF IC50): 20 nM
IC50 ([14]; MCF-7 Tam1, mean of three independent MTT experiments, read-out: AF IC50): 25 nM
IC50 [15]: 16 to 20 nM
IC50 ([4]; Homo sapiens, Hs-578T, Hs578t, mean of three independent MTT experiments, read-out: AF IC50): 20000 nM
IC50 [16, 35]: 3000 nM
IC50 [17]: 12 nM

Cc1c(F)c(N)c2c(=O)cc(-c3ccc(NC(=O)[C@@H](N)CCCCN)c(F)c3)oc2c1F [AFP464]
IC50 [18]: ~10 nM
γ-H2AX Foci [19]: yes
IC50 ([9]; 120 h, HCC1937, 5 day continuous exposure, MTT, read-out: IC50): 10 to 200 nM
IC50 [20]: 2500 nM
γ-H2AX Foci [21]: no
γ-H2AX Foci [22]: yes
IC50 ([10]; MCF-7, MTT, read-out: IC50): 16 nM
IC100 ([10]; MCF-7, MTT): 300 nM
IC50 ([2]; MDA-MB-231, MTT, read-out: IC50): 25000 nM
IC100 ([2]; MDA-MB-231, MTT): >100 µM
IC50 ([11]; MTT, read-out: IC50): 14 nM
IC100 ([11]; MTT): 20 nM
IC50 ([13]; MCF-7 HER2-18, MTT, read-out: IC50): 20 nM
IC100 ([13]; MCF-7 HER2-18, MTT): 375 nM
expression of RNA for CYP1A1 [23, 36]: increased expression
expression of RNA for CYP1A1 [23, 37]: little expression
γ-H2AX Foci [24]: yes
IC50 ([14]; MCF-7 TAM1, MTT, read-out: IC50): 25 nM
IC100 ([14]; MCF-7 TAM1, MTT): 200 nM
MTD [25]: 75 mg/kg/day
IC50 [26]: 252 nM
γ-H2AX Foci [27]: no
% Growth Inhibition [d29] ([3]; AFP464 35 mg/kg i.v. Day 1, 3, 5, 15, 17, 19): 23%
Opt. Test/Control % [d] ([3]; AFP464 35 mg/kg i.v. Day 1, 3, 5, 15, 17, 19, optimum d26): 77 [d26] %
% Growth Inhibition [d29] ([3]; AFP464 70 mg/kg i.v. Day 1, 3, 5, 15): 15%
Opt. Test/Control % [d] ([3]; AFP464 70 mg/kg i.v. Day 1, 3, 5, 15, optimum d28): 85 [d28] %
γ-H2AX Foci [28]: yes
IC50 ([29]; IGROV-1): 420 nM
IC50 ([29]; IGROV-1, 120 h, IGROV1, 5 day continuous exposure, MTT): 10 to 200 nM
expression of RNA for CYP1B1 [30, 36]: increased expression
expression of RNA for CYP1B1 [30, 37]: little expression
IC50 [31]: > 10000 nM
IC50 [32]: 13000 nM
IC50 ([16]; MTT, read-out: IC50): 3000 nM
IC100 ([16]; MTT): 9 µM
IC50 [33]: 30000 nM
IC50 [34]: 5000 nM
